Test results reported in the supplement of paper PMC10307832.

Legend:
Test in all cases: relative viability (nuclei count vs DMSO), 5 days (fraction); higher = more cells survive
Shikonin + Crizotinib = compound: CC(C)=CC[C@@H](O)C1=CC(=O)c2c(O)ccc(O)c2C1=O [Shikonin] + C[C@@H](Oc1cc(-c2cnn(C3CCNCC3)c2)cnc1N)c1c(Cl)ccc(F)c1Cl [Crizotinib] (partner 1 µM)
In short: (§1)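 For relative viability, nuclei counts in treated wells were divided by those in vehicle wells. Lung cancer cell lines had been pin-tool dosed in 1536-well plates the day after seeding and cultured for 5 days, then fixed and stained in one step (final 0.05% Triton X-100, 1% formaldehyde, 1 ug/ml Hoechst) and imaged at 4×. Doses were one drug alone or a fixed anchor-drug dose plus five library-drug doses (not always all listed) in √10 steps, and values are duplicate-plate medians.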

[1] = compound: CC(C)N(CCCNC(=O)Nc1ccc(C(C)(C)C)cc1)C[C@H]1O[C@@H](n2ccc3c(N)ncnc32)[C@H](O)[C@@H]1O + COc1cccc2cc(-c3nc([C@H]4CC[C@H](C(=O)O)CC4)n4ncnc(N)c34)[nH]c12 [OSI-027] (partner 0.5 µM)
In short: as §1

Shikonin + Pemetrexed = compound: CC(C)=CC[C@@H](O)C1=CC(=O)c2c(O)ccc(O)c2C1=O [Shikonin] + Nc1nc2[nH]cc(CCc3ccc(C(=O)N[C@@H](CCC(=O)O)C(=O)O)cc3)c2c(=O)[nH]1 [Pemetrexed] (partner 0.2 µM)
In short: as §1

Shikonin + Luminespib = compound: CC(C)=CC[C@@H](O)C1=CC(=O)c2c(O)ccc(O)c2C1=O [Shikonin] + CCNC(=O)c1noc(-c2cc(C(C)C)c(O)cc2O)c1-c1ccc(CN2CCOCC2)cc1 [Luminespib] (partner 0.01 µM)
In short: as §1

Cell Line	relative viability (Shikonin + Crizotinib; first compound 0.01 µM)	relative viability (Shikonin + Crizotinib; first compound 0.1 µM)	relative viability (Shikonin + Crizotinib; first compound 0.3162 µM)	relative viability (Shikonin + Crizotinib; first compound 1 µM)	relative viability ([1]; first compound 0.08 µM)	relative viability ([1]; first compound 0.253 µM)	relative viability ([1]; first compound 0.8 µM)	relative viability ([1]; first compound 2.53 µM)	relative viability ([1]; first compound 8 µM)	relative viability (Shikonin + Pemetrexed; first compound 0.01 µM)	relative viability (Shikonin + Pemetrexed; first compound 0.1 µM)	relative viability (Shikonin + Pemetrexed; first compound 0.3162 µM)	relative viability (Shikonin + Pemetrexed; first compound 1 µM)	relative viability (Shikonin + Luminespib; first compound 0.01 µM)	relative viability (Shikonin + Luminespib; first compound 0.1 µM)	relative viability (Shikonin + Luminespib; first compound 0.3162 µM)	relative viability (Shikonin + Luminespib; first compound 1 µM)
HOP-62	0.61	0.95	0.32	1.02	0.864	0.89	0.767	0.751	0.681	0.432	0.353	0.349	0.278	0.975	0.763	0.96	0.914
IA-LM	1.06		1.11	0.667													
LC-2-ad	0.404	0.45	0.423	0.364	0.845	0.823	0.892	0.816	0.855	0.297	0.273	0.269	0.282	0.934	1.11	1.08	1.07
LCLC-97TM1	0.573	0.46	0.3	0.247	0.555	0.642	0.716	0.557	0.679	0.123	0.162	0.155	0.16	0.833	0.776	0.878	0.717
LCLC-103H	0.953	1	1.13	1.06	0.447	0.58	0.495	0.451	0.467	0.436	0.49	0.46	0.477	1.01	1.17	1.06	0.993
LK-2	0.248	0.212	0.219	0.221	0.235	0.277	0.215	0.236	0.213	0.311	0.3	0.306	0.266	0.195	0.185	0.211	0.17
LOU-NH91	0.737	0.686	0.775	0.737	0.734	0.714	0.666	0.689	0.728	0.367	0.381	0.381	0.458	0.317	0.358	0.382	0.332
LU99A	0.545	0.688	0.599	0.465	0.317	0.327	0.329	0.377	0.254	0.174	0.206	0.191	0.199	0.165	0.242	0.268	0.177
LXF-289	0.856	0.825	0.773	0.844	0.791	0.797	0.852	0.828	0.742	0.892	0.959	0.955	0.945	0.721	0.625	0.604	0.814
NCI-H23	0.576	0.489	0.515	0.502	0.594	0.596	0.574	0.681	0.645	0.662	0.832	0.704	0.766	0.226	0.196	0.227	0.143
